One block for each compound: values may come before it.
Legend:
[1] = Fluorescence emission spectrum and quenching efficiency of substrate 1 versus BODIPY FL-acid; format: physicochemical
Experimental: Fluorescence emission spectra for substrate 1 and BODIPY® FL-acid: The emission spectra were obtained for substrate 1 and BODIPY® FL-acid in citrate-phosphate buffer (150 mM; pH 5.4) containing 1% DMSO and 0.25% taurodeoxycholate. Data were collected using a Molecular Devices plate reader ([…]). […] The excitation wavelength used was 485 nm and the emission wavelength was 513 nm.
Determination of the quenching efficiencies for substrate 1 using concentration dependent variation in the fluorescence emission of substrate 1 and its corresponding fluorophore BODIPY® FL-acid: The quenching efficiencies were determined by comparing the fluorescence emission standard curves of substrate 1 and comparing it to that of BODIPY® Fl-acid.

[2] = biological target: T1, purified recombinant GCase (Homo sapiens, UniProt P04062); test: In-vitro kinetic assay with purified recombinant GCase; format: biochemical; conditions: same kinetic assay, substrate 3 vs 9b
T1 construct: purchased R&D Systems
T1 sequence (P04062 40-536): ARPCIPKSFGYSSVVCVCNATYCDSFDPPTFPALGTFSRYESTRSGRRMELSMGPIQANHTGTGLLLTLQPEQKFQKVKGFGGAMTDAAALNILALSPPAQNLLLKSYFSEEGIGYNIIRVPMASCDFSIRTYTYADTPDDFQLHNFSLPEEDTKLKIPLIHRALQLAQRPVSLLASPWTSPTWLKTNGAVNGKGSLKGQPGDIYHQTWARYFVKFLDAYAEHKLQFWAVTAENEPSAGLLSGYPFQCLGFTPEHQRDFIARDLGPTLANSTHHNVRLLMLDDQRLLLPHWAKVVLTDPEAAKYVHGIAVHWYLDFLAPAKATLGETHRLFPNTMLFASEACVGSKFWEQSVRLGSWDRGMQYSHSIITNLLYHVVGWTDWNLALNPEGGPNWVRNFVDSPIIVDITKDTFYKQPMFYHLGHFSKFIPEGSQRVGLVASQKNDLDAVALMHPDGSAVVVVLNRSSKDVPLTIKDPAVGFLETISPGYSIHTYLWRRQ
Experimental: (§1) In-vitro kinetic assay for substrate 1. Continuous assays were performed at 30° C. in citrate-phosphate buffer (150 mM; pH 5.4) containing 0.25% taurodeoxycholate. The concentrations of substrate 1 used in assays were 0.39, 0.78, 1.56, 3.13 6.25, 12.5, 25 and 50 μM. Reactions were initiated by the addition of purified recombinant GCase (2.5 nM, R&D Systems) and the reaction was monitored continuously over 1200 seconds to determine the initial rate of change of fluorescence. Standard curves were constructed using BODIPY® Fl-acid using the same buffer conditions. […] Assays were carried out in triplicate.
as §1, with “Comparative In-vitro” for “In-vitro”, “substrate 3 and 9b.” for “substrate 1.”, “of substrates 3 and 9b” for “of substrate 1”, “were 0.156, 0.313, 0.625, 1.25, 2.5, 5, 10,” for “were 0.39, 0.78, 1.56, 3.13 6.25, 12.5, 25”, “and 20” for “and 50”, “using TAMRA and BODIPY-576” for “using BODIPY® Fl-acid”

GCase = biological target: T2, GCase (Homo sapiens, UniProt P04062); test: GCase inhibition by AT3375 in live SK-N-SH cells read with substrate 1; format: cell-based; conditions: 10 μM AT3375 with 5 μM substrate 1, 2 h
T2 construct: High content imaging of SK-N-SH cells incubated for 2 h; endogenous in cells; host or cells: SK-N-SH
T2 sequence (P04062 40-536): T1 sequence (P04062 40-536)
Experimental: After incubation at 37° C. and 5% CO2 for 2 h, the media was removed and the cells were washed.
After incubation at 37° C. and 5% CO2 for 2 h, the media was removed, and the cells were washed. The plate was then imaged using a Molecular Devices ImageXpress XLS High-Content Imager. From the images, the total mean integrated intensity was measured for the FITC channel and divided by the number of cells within the imaging site as determined by the DAPI staining.

- fluorescence emission of intact substrate compared to free fluorophore BODIPY FL-acid ([1]; 6.25 μM, citrate-phosphate buffer 150 mM, pH 5.4, excitation 485 nm, emission 513 nm): strikingly little fluorescence
- quenching efficiency ([1]; fluorescence emission standard curves compared to BODIPY Fl-acid): greater than 99.7%
Compound: COc1cc(/N=N/c2ccc(C)cc2[N+](=O)[O-])c(C)cc1/N=N/c1ccc(N(C)CCCC(=O)NCCCO[C@@H]2O[C@H](COCc3cn(CCCNC(=O)[C@H](CCCCN(C)C)NC(=O)CCC4=[N+]5C(=Cc6c(C)cc(C)n6[B-]5(F)F)C=C4)nn3)[C@@H](O)[C@H](O)[C@H]2O)cc1 [substrate 1, (S)-2-(3-(5,5-difluoro-7,9-dimethyl-dipyrrolo[1,2-c:2′,1′-f][1,3,2]diazaborinin-4-ium-5-uid-3-yl)propanamido)-6-(dimethylamino)-N-(3-(4-((((2R,3S,4S,5R,6R)-3,4,5-trihydroxy-6-(3-(4-((4-((E)-(2-methoxy-5-methyl-4-((E)-(4-methyl-2-nitrophenyl)diazenyl)phenyl)diazenyl)phenyl)(methyl)amino)butanamido)propoxy)tetrahydro-2H-pyran-2-yl)methoxy)methyl)-1H-1,2,3-triazol-1-yl)propyl)hexanamide]

- second order rate constant relative to 9b [2]: more than 5 fold
Compound: COc1cc(/N=N/c2ccc([N+](=O)[O-])cc2)c(OC)cc1/N=N/c1ccc(N(C)CCCC(=O)NCCc2ccc(O[C@@H]3O[C@H](COCCCCn4cc(CNC(=O)[C@H](CCCCN(C)C)NC(=O)c5ccc(-c6c7ccc(=[N+](C)C)cc-7oc7cc(N(C)C)ccc67)c(C(=O)O)c5)nn4)[C@@H](O)[C@H](O)[C@H]3O)cc2)cc1 [substrate 3, 5-(((S)-1-(((1-(4-(((2R,3S,4S,5R,6S)-6-(4-(2-(4-((4-((E)-(2,5-dimethoxy-4-((E)-(4-nitrophenyl)diazenyl)phenyl)diazenyl)phenyl)(methyl)amino)butanamido)ethyl)phenoxy)-3,4,5-trihydroxytetrahydro-2H-pyran-2-yl)methoxy)butyl)-1H-1,2,3-triazol-4-yl)methyl)amino)-6-(dimethylamino)-1-oxohexan-2-yl)carbamoyl)-2-(6-(dimethylamino)-3-(dimethyliminio)-3H-xanthen-9-yl)benzoate]

Compound: O[C@H]1[C@H](O)CNC[C@@H]1C(F)F [AT3375, (3R,4R,5S)-5-(difluoromethyl)piperidine-3,4-diol]
- effect on fluorescent signal from substrate 1 (GCase): significant reduction of the punctuated fluorescent signal

— patent publication US20250130225A1, “SUBSTRATES FOR IMAGING GLUCOCEREBROSIDASE ACTIVITY” (SIMON FRASER UNIVERSITY, priority 2021, published 2025)
